# Laboratory results reported in patent EP1105515B1, “ALPHA 2,8/2,9 POLYSIALYLTRANSFERASE” (THE SCRIPPS RESEARCH INSTITUTE, priority 1998, dated 2000).
# Tested on: neuS gene product of E.coli K92 expressed in BL21(DE3)
# Assay: Sialyltransferase assay: substrate specificity for acceptor substrates (transfer of 14C-NeuAc from CMP[14C]NeuAc)
# Format: biochemical
# Conditions: for Total sialic acid transferred / cpm obtained (per 60 ul reaction): 1 (M acceptor, 9 nmol CMP[14C]NeuAc (8000 cpm/nmol) as donor, 37 °C, 1 hr, 20 (g of 40K Sup; for Total sialic acid transferred: per 60 ul reaction; for cpm obtained (per 60 ul reaction): product spot on DEAE-cellulose TLC counted; for suitability as acceptor substrate (in words): cell-free fractions (15 K Sup, 40 K Sup, pellet), CMP[14C]NeuAc as donor
# Procedure: The assay was carried out essentially as described by Vimr et al (Steenbergen, S. M. et al. (1992) J. Bacteriol. 174 : 1099-1108) with the following modifications : after harvesting, the cells were washed three times with 25 mM Tris HCI (pH 8. 0) and then resuspended in 25 mM Tris HCl (pH 8. 0) containing 5 mM MgCl2, 5 mM dithiothreitol (DTT), and 1 (1/mL protease inhibitor cocktail (Sigma). Cells were lysed three times by using a French Press (AMINCO; 1, 500 psi). The cell debris was removed by centrifugation twice at 15, 000 rpm and the supernatant was collected (termed the 15 K Sup). This supernatant was then centrifuged again at 100,000x g (~ 40 K rpm) using a Beckman ultracentrifuge (Model L5-50). Both the supernatant (termed the 40 K Sup) and the pellet were saved. The pellet was resuspended in a buffer containing 25 mM Tris-HCI, 5 mM MgCl2, 5 mM DTT, and 0.1% Triton CF-54. The supernatants and the pellet were stored on ice, and used for assay within 2 h.
# Without the addition of acceptor, the endogenous enzyme activity was determined. The exogenous activity was then detected by addition of sialic acid as acceptor and CMP[^14C]NeuAc as donor in a reaction buffer containing 25 mM Tris-HCl (pH 8.0), 5 mM MgCl2, 5 mM DTT, and 0.5% Triton CF-54. Other substrates were also used, including colominic acid. Both the endogenous and exogenous enzyme activity assays measure the transfer of ^14C-labeled NeuAc to the acceptor. Unreacted radiolabeled substrates were seperated by DEAE-cellulose TLC (n-propanol/14M NH4OH/H2O:: 6 : 1: 3) or by Sephadex G-25 column chromatography. Radioactivity remaining at the origin and/or at the top of the TLC plate or the product obtained at the void volume of Sephadex G-25 column, was quantitated by liquid scintillation spectrometry. For analysis using Sephadex G-25 column chromatography, a column (1 cm x 3.5 cm) of Sephadex G-25 (Pharmacia) in water was prepared. The radiolabeled cell-free reaction mixture (60 (1) was loaded and washed with 1.5 ml of water, which was collected and counted. In some experiments, the activity was determined by separating the unused CMP[^14C]NeuAc by Dowex 1X8 (phosphate form) column chromatography (Williams, M. A. et al. (1995) Glycoconj. J. 12: 755 - 761). The initial rates were estimated graphically, and activity was expressed as pmoles of sialic acid transferred per hour.
# The reaction mixture (60 (l) contained 1 (M each of the following acceptors and 9 nmol of CMP[^14C]NeuAc (specific activity: 8000 cpm/nmol) as donor substrate. The reactions were carried out at 37 °C for 1 hr using 20 (g of 40K Sup as mentioned in 'Materials and Methods.' The reaction mixture (1 (1) was spotted on a plastic backed DEAE-cellulose TLC plate, and ran in n-propanol:14.5M NH4OH:water :: 6:1:3. After air-drying, the plate was exposed to Kodak's XAR-5 film for overnight at -70° C. The area corresponding to the reaction product was marked, cut and then counted in scintillation fluid.
Molecule,Total sialic acid transferred,cpm obtained (per 60 ul reaction),suitability as acceptor substrate (in words),suitability as acceptor substrate (in words) (listed as neuraminic acid)
CC(=O)N[C@H]1[C@H]([C@H](O)[C@H](O)COC(C)=O)OC(O)(C(=O)O)C[C@@H]1O (stereo partly drawn) [9-O-acetyl sialic acid],110 pmol,900 cpm,not well accepted,
CC(=O)N[C@H]1[C@H]([C@H](O)[C@H](O)CO)O[C@@](O[C@H](CO)[C@@H](O)[C@@H]2OC(O)(C(=O)O)C[C@H](O)[C@H]2NC(C)=O)(C(=O)O)C[C@@H]1O (stereo partly drawn) [Dimer],140 pmol,1080 cpm,poor acceptors,
"CC(=O)N[C@H]1[C@H]([C@H](O)[C@H](O)CO)OC(O)(C(=O)O)C[C@@H]1O (stereo partly drawn) [Monomer, sialic acid]",470 pmol,3780 cpm,good acceptors,best substrate
CC(=O)N[C@H]1[C@H]([C@H](O)[C@H](O)CO)O[C@@](O[C@H](CO)[C@@H](O)[C@@H]2O[C@@](O[C@H](CO)[C@@H](O)[C@@H]3OC(O)(C(=O)O)C[C@H](O)[C@H]3NC(C)=O)(C(=O)O)C[C@H](O)[C@H]2NC(C)=O)(C(=O)O)C[C@@H]1O (stereo partly drawn) [Trimer],140 pmol,1560 cpm,poor acceptors,
GT1b,130 pmol,1140 cpm,,
